Test results: patent US8252273B2, “Ultraviolet absorber” (Lead Chemical Co., Ltd., priority 2007, dated 2012)
Values belong to the compound of their own block, whether it stands above or below them.

Assays:
[1] = Test Example 3: ultraviolet irradiation test (absorption spectra for different irradiation times); assay type: physicochemical; conditions: conclusion for the compounds
Text: Ointments (samples B, C, D and E) prepared in Test Example 1 were interposed between two pieces of synthetic quartz plates to prepare measurement samples.
From a light radiated from a 500 W ultra-high pressure mercury vapor lamp (trade name: USH-500D; manufactured by Ushio Inc.), the visible light was removed through a water filter of 5 cm and an ultraviolet transmitting and visible light-absorbing filter (trade name: UV-D33S; manufactured by AGC Techno Glass Co., Ltd.). Then, each measurement sample was irradiated with ultraviolet rays mostly in the UVA and the UVB ranges. Ultraviolet rays irradiation time was set at 0, 5, 10, 15, 20, 25 and 30 minutes. The results of the test are shown in the ultraviolet absorption spectra of FIG. 4 to FIG. 7.

[2] = Test Example 2: solubility test in organic solvents; assay type: physicochemical; conditions: for Amount of solvent required to dissolve 100 mg of sample / Concentration on dissolving 100 mg of sample: room temperature (23 to 25° C.)
Procedure: Sample a: the O-tolyl-4-methoxycinnamate compound synthesized in Example 1
Sample b: the Compound of Reference Example 2
The amounts of various organic solvents capable of dissolving 100 mg of each sample at room temperature (23 to 25° C.) were measured. For dissolving the sample, a 50 mL polypropylene conical tube (manufactured by CORNING Inc.) was used, and dissolution was carried out by stirring with a shaker (trade name: Vortex G-56; manufactured by Scientific Ind. Inc.) for 1 minute.

Ultraviolet absorptive capacity (absorption strength) under ultraviolet irradiation in the UVA and the UVB ranges [1]: decreases or remains the same
Compound: CCCCC(CC)COC(=O)C=Cc1ccc(OC)cc1 (stereo not drawn) [Reference Example 1, 4-methoxycinnamic acid-2-ethylhexyl, reference compound]

Compound: COc1ccc(C(=O)CC(=O)c2ccc(C(C)(C)C)cc2)cc1 [Reference Example 2, 4-tert-butyl-4′-methoxy-dibenzoylmethane, reference compound]
Ultraviolet absorptive capacity (absorption strength) under ultraviolet irradiation in the UVA and the UVB ranges [1]: decreases or remains the same

Ultraviolet absorptive capacity (absorption strength) under ultraviolet irradiation in the UVA and the UVB ranges [1]: increases further
Amount of solvent required to dissolve 100 mg of sample ([2]; Acetone): < 1 mL
Concentration on dissolving 100 mg of sample ([2]; Acetone): (>10)
Amount of solvent required to dissolve 100 mg of sample ([2]; Ethanol): 10 mL
Concentration on dissolving 100 mg of sample ([2]; Ethanol): (1)
Amount of solvent required to dissolve 100 mg of sample ([2]; Ether): 3 mL
Concentration on dissolving 100 mg of sample ([2]; Ether): (3.3)
Amount of solvent required to dissolve 100 mg of sample ([2]; Ethyl acetate): < 1 mL
Concentration on dissolving 100 mg of sample ([2]; Ethyl acetate): (>10)
Amount of solvent required to dissolve 100 mg of sample ([2]; Isopropyl alcohol): 15 mL
Concentration on dissolving 100 mg of sample ([2]; Isopropyl alcohol): (0.67)
Amount of solvent required to dissolve 100 mg of sample ([2]; Methanol): 7.5 mL
Concentration on dissolving 100 mg of sample ([2]; Methanol): (1.3)
Amount of solvent required to dissolve 100 mg of sample ([2]; N-methylpyrrolidone): < 1 mL
Concentration on dissolving 100 mg of sample ([2]; N-methylpyrrolidone): (>10)
melting point: 93 to 94 °C
Compound: COc1ccc(/C=C/C(=O)Oc2ccccc2C)cc1 [Example 1, O-tolyl-4-methoxycinnamate]
Solubility in organic solvents compared with Reference Example 2 ([2]; almost all the organic solvents tested): better solubility than that of the compound of Reference Example 2

Ultraviolet absorptive capacity (absorption strength) under ultraviolet irradiation in the UVA and the UVB ranges [1]: increases further
melting point: 108 to 109 °C
Compound: CCOc1ccc(/C=C/C(=O)Oc2ccccc2C)cc1 [Example 2, O-tolyl-4-ethoxycinnamate]
